The compounds below were run on MM.1S cells (assay: Inhibitory effect on the proliferation of MM.1S, MTS cell viability test). Settings: Homo sapiens, MM1.S, 168 h, multiple myeloma MM.1S cells, 7 days incubation, read-out: Tumor cell inhibitory activity.
Format: cell-based
Outline: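 Viability measured by MTS (OD490 minus OD690 background, 3-4 h) after a 7-day exposure of 20,000 MM.1S cells/well to 5-fold serially diluted compound, 0.2% DMSO final. Inhibition calculated relative to DMSO wells; IC50 curve-fitted, averaged over three repeats.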
O=C1CCC(N2Cc3c(CCCCCN4CCC5(CC4)OC(=O)Nc4ccccc45)cccc3C2=O)C(=O)N1 (centres unmarked) [Example 125, 3-(1-oxo-4-(5-(2-oxo-1,2-dihydrospiro[benzo[d][1,3]oxazine-4,4′-piperidine]-1′-)pentyl)isoindoline-2-)piperidine-2,6-dione] was tested, and the IC50 was 100 to 1000 nM.
For O=C1CCC(N2Cc3c(OCCCCN4CCC5(CC4)OCc4ccccc45)cccc3C2=O)C(=O)N1 (centres unmarked) [Example 126, 3-(4-(4-(2H-spiro[benzofuran-3,4′-piperidine]-1′-)butoxy)-1-oxoisoindoline-2-)piperidine-2,6-dione], the IC50 was less than 100 nM.
O=C1CCC(N2Cc3c(CCCCCN4CCC5(CC4)OCc4ccc(Cl)cc45)cccc3C2=O)C(=O)N1 (centres unmarked) [Example 127] gave an IC50 of 100 to 1000 nM.
For O=C1CCC(N2Cc3c(OCCCCN4CCC5(CC4)OCc4ccc(F)cc45)cccc3C2=O)C(=O)N1 (centres unmarked) [Example 128, 3-(4-(4-(6-fluoro-3H-spiro[isobenzofuran-1,4′-piperidine]-1′-)butoxy)-1-oxoisoindoline-2-)piperidine-2,6-dione], the IC50 was less than 100 nM.
O=C1CCC(N2Cc3c(CCCCCN4CCC5(CC4)OC(=O)c4cc(Cl)ccc45)cccc3C2=O)C(=O)N1 (centres unmarked) [Example 129, 3-(4-(5-(5-chloro-3-oxo-3H-spiro[isobenzofuran-1,4′-piperidine]-1′-)pentyl)-1-oxoisoindoline-2-)piperidine-2,6-dione] was tested, and the IC50 was 100 to 1000 nM.
For Cc1ccc2c(c1)C1(CCN(CCCCOc3cccc4c3CN(C3CCC(=O)NC3=O)C4=O)CC1)OC2 (centres unmarked) [Example 130, 3-(4-(4-(6-methyl-3H-spiro[isobenzofuran-1,4′-piperidine]-1′-)butoxy)-1-oxoisoindoline-2-)piperidine-2,6-dione], the IC50 was less than 100 nM.
O=C1CCC(N2Cc3c(CCCCCN4CCC5(CC4)OC(=O)Nc4ncccc45)cccc3C2=O)C(=O)N1 (centres unmarked) [Example 131, 3-(1-oxo-4-(5-(2′-oxo-1′,2′-dihydrospiro[piperidine-4,4′-pyrido[2,3-d][1,3)oxazine)-1-)pentyl)isoindoline-2-)piperidine-2,6-dione] was tested, and the IC50 was 100 to 1000 nM.
In the case of O=C1CCC(N2Cc3c(OCCCCCN4CCC5(CC4)OCc4ccc(Cl)cc45)cccc3C2=O)C(=O)N1 (centres unmarked) [Example 132, 3-(4-((5-(6-chloro-3H-spiro[isobenzofuran-1,4-piperidine]-1-)pentyl)oxy)-1-oxoisoindoline-2-)piperidine-2,6-dione], the IC50 is reported as less than 100 nM.
O=C1CCC(N2Cc3c(CCCCCN4CCC5(CC4)C(=O)Nc4ccc(Cl)cc45)cccc3C2=O)C(=O)N1 (centres unmarked) [Example 133, 3-(4-(5-(5-chloro-2-oxospiro[indoline-3,4′-piperidine]-1′-)pentyl)-1-oxoisoindoline-2-)piperidine-2,6-dione] was tested, and the IC50 was less than 100 nM.
With COc1ccc2c(c1)C1(CCN(CCCCCc3cccc4c3CN(C3CCC(=O)NC3=O)C4=O)CC1)C(=O)N2 (centres unmarked) [Example 135, 3-(4-(5-(5-methoxy-2-oxospiro[indoline-3,4′-piperidine]-1′-)pentyl)-1-oxoisoindoline-2-)piperidine-2,6-dione] the IC50 was 100 to 1000 nM.
O=C1CCC(N2Cc3c(CCCCCN4CCC5(CC4)OCCc4ccccc45)cccc3C2=O)C(=O)N1 (centres unmarked) [Example 137, 3-(1-oxo-4-(5-(spiro[isochroman-1,4′-piperidine]-1′-)pentyl)isoindoline-2-)piperidine-2,6-dione] was tested, and the IC50 was 100 to 1000 nM.
In the case of O=C1CCC(N2Cc3c(OCCCN4CCC5(CC4)OCc4ccc(Cl)cc45)cccc3C2=O)C(=O)N1 (centres unmarked) [Example 138, 3-(4-(3-(6-chloro-3H-spiro[isobenzofuran-1,4′-piperidine]-1′-)propoxy)-1-oxoisoindoline-2-)piperidine-2,6-dione], the IC50 is reported as less than 100 nM.
Work on O=C1CCC(N2Cc3c(CCCCCN4CCC5(C4)C(=O)Nc4ccccc45)cccc3C2=O)C(=O)N1 (centres unmarked) [Example 139] yielded an IC50 of 100 to 1000 nM.
Cc1ccc2c(c1)C1(CCN(CCCOc3cccc4c3CN(C3CCC(=O)NC3=O)C4=O)CC1)OC2 (centres unmarked) [Example 140, 3-(4-(3-(6-methyl-3H-spiro[isobenzofuran-1,4′-piperidine]-1′-)propoxy)-1-oxoisoindoline-2-)piperidine-2,6-dione] gave an IC50 of less than 100 nM.
With O=C1CCC(N2Cc3c(CCCCCN4CCC5(C=Cc6ccccc65)CC4)cccc3C2=O)C(=O)N1 (centres unmarked) [Example 141, 3-(1-oxo-4-(5-(spiro[indene-1,4′-piperidine]-1′-)pentyl)isoindoline-2-)piperidine-2,6-dione] the IC50 was 100 to 1000 nM.
O=C1CCC(N2Cc3c(OCCCN4CCC5(CC4)OCc4ccc(F)cc45)cccc3C2=O)C(=O)N1 (centres unmarked) [Example 142, 3-(4-(3-(6-fluoro-3H-spiro[isobenzofuran-1,4′-piperidine]-1′-)propoxy)-1-oxoisoindoline-2-)piperidine-2,6-dione] showed an IC50 of 100 to 1000 nM.
For O=C1CCC(N2Cc3c(OCCCCCN4CCC5(CC4)OCc4ccc(F)cc45)cccc3C2=O)C(=O)N1 (centres unmarked) [Example 144, 3-(4-((5-(6-fluoro-3H-spiro[isobenzofuran-1,4-piperidine]-1-)pentyl)oxy)-1-oxoisoindoline-2-)piperidine-2,6-dione], the IC50 was less than 100 nM.
Compound O=C1CCC(N2Cc3c(CCCCCN4CCC5(CC4)COc4ccccc45)cccc3C2=O)C(=O)N1 (centres unmarked) [Example 145] has an IC50 of 100 to 1000 nM.
In the case of Cc1ccc2c(c1)C1(CCN(CCCCCOc3cccc4c3CN(C3CCC(=O)NC3=O)C4=O)CC1)OC2 (centres unmarked) [Example 146, 3-(4-((5-(6-methyl-3H-spiro[isobenzofuran-1,4′-piperidine]-1′-)pentyl)oxy)-1-oxoisoindoline-2-)piperidine-2,6-dione], the IC50 is reported as less than 100 nM.
O=C1CCC(N2Cc3c(CCCCCN4CCC5(CC4)C(=O)NCN5c4ccccc4)cccc3C2=O)C(=O)N1 (centres unmarked) [Example 147, 3-(1-oxo-4-(5-(4-oxo-1-phenyl-1,3,8-triazaspiro[4.5]decane-8-)pentyl)isoindoline-2-)piperidine-2,6-dione] showed an IC50 of 100 to 1000 nM.
O=C1CCC(N2Cc3c(OCCCCCCN4CCC5(CC4)COc4ccccc45)cccc3C2=O)C(=O)N1 (centres unmarked) [Example 148, 3-(4-((6-(2H-spiro[benzofuran-3,4′-piperidine]-1′-)hexyl)oxy)-1-oxoisoindoline-2-)piperidine-2,6-dione] showed an IC50 of less than 100 nM.
With O=C1CCC(N2Cc3c(CCCCN4CCC5(CC4)OCc4ccccc45)cccc3C2=O)C(=O)N1 (centres unmarked) [Example 149, 3-(4-(4-(3H-spiro[isobenzofuran-1,4′-piperidine]-1′-)butyl)-1-oxoisoindoline-2-)piperidine-2,6-dione] the IC50 was 100 to 1000 nM.
For O=C1CCC(N2Cc3c(OCCCCCCN4CCC5(CC4)OCc4ccc(Cl)cc45)cccc3C2=O)C(=O)N1 (centres unmarked) [Example 150, 3-(4-((6-(6-chloro-3H-spiro[isobenzofuran-1,4′-piperidine]-1′-)hexyl)oxy)-1-oxoisoindoline-2-)piperidine-2,6-dione], the IC50 was less than 100 nM.
O=C1CCC(N2Cc3c(CCCCN4CCC5(CC4)OCc4ccc(Cl)cc45)cccc3C2=O)C(=O)N1 (centres unmarked) [Example 151, 3-(4-(4-(6-chloro-3H-spiro[isobenzofuran-1,4-piperidine]-1-)butyl)-1-oxoisoindoline-2-)piperidine-2,6-dione] was tested, and the IC50 was 100 to 1000 nM.
Compound O=C1CCC(N2Cc3c(OCCCCC(=O)N4CCC5(CC4)OCc4ccc(Cl)cc45)cccc3C2=O)C(=O)N1 (centres unmarked) [Example 152, 3-(4-((5-(6-chloro-3H-spiro[isobenzofuran-1,4′-piperidine]-1′-)-5-oxopentyl)oxy)-1-oxoisoindoline-2-)piperidine-2,6-dione] has an IC50 of less than 100 nM.
Compound O=C1CCC(N2Cc3c(OCCCC(=O)N4CCC5(CC4)OCc4ccc(Cl)cc45)cccc3C2=O)C(=O)N1 (centres unmarked) [Example 153] has an IC50 of 100 to 1000 nM.
O=C1CCC(N2Cc3c(OCCCCNC(=O)N4CCC5(CC4)OCc4ccc(Cl)cc45)cccc3C2=O)C(=O)N1 (centres unmarked) [Example 154, 6-chloro-N-(4-((2-(2,6-dioxopiperidine-3-)-1-oxoisoindoline-4-)-oxy-)butyl)-3H-spiro[isobenzofuran-1,4-piperidine]-1-carboxamide] showed an IC50 of less than 100 nM.
Compound O=C1CCC(N2Cc3c(OCCNC(=O)N4CCC5(CC4)OCc4ccc(Cl)cc45)cccc3C2=O)C(=O)N1 (centres unmarked) [Example 155, 6-chloro-N-(2-((2-(2,6-dioxopiperidine-3-)-1-oxoisoindoline-4-)oxy)ethyl)-3H-spiro[isobenzofuran-1,4-piperidine]-1-carboxamide] has an IC50 of less than 100 nM.
O=C1CCC(N2Cc3c(CCCCCN4CCC5(CC4)OCc4ccc(F)cc45)cccc3C2=O)C(=O)N1 (centres unmarked) [Example 156, 3-(4-(5-(6-fluoro-3H-spiro[isobenzofuran-1,4′-piperidine]-1′-)pentyl)-1-oxoisoindoline-2-)piperidine-2,6-dione] was tested, and the IC50 was less than 100 nM.
In the case of Cc1ccc2c(c1)C1(CCN(CCCCCc3cccc4c3CN(C3CCC(=O)NC3=O)C4=O)CC1)OC2 (centres unmarked) [Example 157, 3-(4-(5-(6-methyl-3H-spiro[isobenzofuran-1,4′-piperidine]-1-)pentyl)-1-oxoisoindoline-2-)piperidine-2,6-dione], the IC50 is reported as less than 100 nM.
Work on Cc1ccc(NC(=O)CCCCOc2cccc3c2CN(C2CCC(=O)NC2=O)C3=O)cc1Cl (centres unmarked) [Example 159, N-(3-chloro-4-methylphenyl)-5-((2-(2,6-dioxopiperidine-3-)-1-oxoisoindoline-4-)oxy)valeramide] yielded an IC50 of less than 100 nM.
For Cc1ccc(NC(=O)NCCOc2cccc3c2CN(C2CCC(=O)NC2=O)C3=O)cc1Cl (centres unmarked) [Example 160, 1-(3-chloro-4-methylphenyl)-3-(2-((2-(2,6-dioxopiperidine-3-)-1-oxoisoindoline-4-)oxy)ethyl)ure], the IC50 was less than 100 nM.
For Cc1ccc(NC(=O)NCCCCOc2cccc3c2CN(C2CCC(=O)NC2=O)C3=O)cc1Cl (centres unmarked) [Example 162, 1-(3-chloro-4-methylphenyl)-3-(4-((2-(2,6-dioxopiperidine-3-)-1-oxoisoindoline-4-)oxy)butyl)urea], the IC50 was less than 100 nM.
With O=C1CCC(N2Cc3c(OCCNC(=O)Nc4ccc(Cl)c(Cl)c4)cccc3C2=O)C(=O)N1 (centres unmarked) [Example 163] the IC50 was 100 to 1000 nM.
With O=C1CCC(N2Cc3c(CCC[C@H](NC(=O)C4CC4)C(=O)NCc4ccccc4)cccc3C2=O)C(=O)N1 (stereo partly drawn) [Example 165, N-((2S)-1-(benzylamino)-5-(2-(2,6-dioxopiperidine-3-)-1-oxoisoindoline-4-)-1-oxopentyl-2-)cyclopropylformamide] the IC50 was less than 100 nM.
